The results in this text go back to paper PMC3095316, “Differential expression pattern of an acidic 9/13-lipoxygenase in flower opening and senescence and in leaf response to phloem feeders in the tea plant” (BMC Plant Biology, 2010).

Read-outs that look alike come from different tables or passages of the source.

As usually defined, the Km is the substrate concentration at which the rate is half of its maximum.

The target in this assay is T1, CsLOX1 (9/13-CsLOX1) (Camellia sinensis, UniProt A8W7J7).
T1 construct: gene lox1
T1 sequence (A8W7J7 1-861): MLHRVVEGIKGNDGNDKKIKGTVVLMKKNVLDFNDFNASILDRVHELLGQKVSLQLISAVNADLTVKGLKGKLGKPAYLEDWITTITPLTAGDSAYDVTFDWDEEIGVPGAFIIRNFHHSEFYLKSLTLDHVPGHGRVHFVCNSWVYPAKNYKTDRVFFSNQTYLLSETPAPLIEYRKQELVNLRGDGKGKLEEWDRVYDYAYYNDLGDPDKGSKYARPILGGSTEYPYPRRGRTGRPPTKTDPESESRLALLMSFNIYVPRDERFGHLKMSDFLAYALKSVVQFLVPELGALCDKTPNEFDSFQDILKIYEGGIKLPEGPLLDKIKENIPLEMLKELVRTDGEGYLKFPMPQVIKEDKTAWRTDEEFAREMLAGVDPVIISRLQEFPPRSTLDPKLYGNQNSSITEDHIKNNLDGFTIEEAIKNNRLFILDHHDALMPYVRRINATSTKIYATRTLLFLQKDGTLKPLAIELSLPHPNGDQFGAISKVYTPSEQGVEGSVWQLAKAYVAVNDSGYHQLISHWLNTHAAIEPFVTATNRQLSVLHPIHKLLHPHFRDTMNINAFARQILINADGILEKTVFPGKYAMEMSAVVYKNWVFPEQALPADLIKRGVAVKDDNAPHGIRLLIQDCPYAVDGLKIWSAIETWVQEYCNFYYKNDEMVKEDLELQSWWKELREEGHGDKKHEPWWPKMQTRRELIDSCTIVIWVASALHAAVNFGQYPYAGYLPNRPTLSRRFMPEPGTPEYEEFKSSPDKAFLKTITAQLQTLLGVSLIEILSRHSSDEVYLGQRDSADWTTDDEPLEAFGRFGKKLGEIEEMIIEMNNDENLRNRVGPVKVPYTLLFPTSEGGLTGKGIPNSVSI
Conditions: co-substrate O2, substrate 75-600 μM, pH and temperature of the kinetics not stated (optimum pH 3.6, 25°C).

Turning to `CCCCC/C=C\C/C=C\CCCCCCCC(=O)O` [linoleic acid], the Km was 141 µM. For the molecule `CC/C=C\C/C=C\C/C=C\CCCCCCCC(=O)O` [linolenic acid], the Km (linolenic acid isomer not printed (alpha taken from jasmonate context)) was 32.9 µM.
